Each compound was assayed against T1, GCS (Canis lupus familiaris, UniProt A0A8I3MXG6) (assay: Assay 1: GCS Enzymatic Assay (MDCK cell lysate, C6-NBD-Ceramide, LC/MS)). Details: Table 1; MDCK cell lysate; read-out: IC50 (nM) generated from Assay 1.
T1 sequence (A0A8I3MXG6 1-394): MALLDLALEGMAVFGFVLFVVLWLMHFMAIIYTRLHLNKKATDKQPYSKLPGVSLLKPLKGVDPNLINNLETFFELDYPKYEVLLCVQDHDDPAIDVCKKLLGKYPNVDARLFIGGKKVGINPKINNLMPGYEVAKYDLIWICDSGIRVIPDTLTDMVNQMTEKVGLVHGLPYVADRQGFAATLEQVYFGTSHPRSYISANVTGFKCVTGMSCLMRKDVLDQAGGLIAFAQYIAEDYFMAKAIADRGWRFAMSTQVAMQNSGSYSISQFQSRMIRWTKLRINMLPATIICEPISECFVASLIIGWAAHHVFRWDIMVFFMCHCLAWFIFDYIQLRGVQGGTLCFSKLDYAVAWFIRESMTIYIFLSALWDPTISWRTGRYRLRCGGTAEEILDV
Format: biochemical, canine
How it was run: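 LC/MS/MS measurement of glucosylceramide and NBD-ceramide after a 1 h, 37 °C reaction with 100 μM UDP-glucose and 10 μM C6-NBD-ceramide gave IC50s or percent inhibition.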

Compound | IC50 [nM]
O=C(N[C@H](CN1CCCC1)[C@H](O)c1ccc2c(c1)OCCO2)C(F)(F)C1Cc2ccc(Cl)cc2C1 (stereo partly drawn) [Compound 63, 2-(5-chloro-2,3-dihydro-1H-inden-2-yl)-N-((1R,2R)-1-(2,3-dihydrobenzo[b][1,4]dioxin-6-yl)-1-hydroxy-3-(pyrrolidin-1-yl)propan-2-yl)-2,2-difluoroacetamide] | < 50

Same assay, conditions: Table 1; values marked *; MDCK cell lysate

Compound | % inhibition generated from Assay 1
O=C(N[C@H](CN1CCC(F)(F)C1)[C@H](O)c1ccc2c(c1)OCCO2)C(F)(F)c1cc2cc(Cl)ccc2o1 [Compound 41, 2-(5-chlorobenzofuran-2-yl)-N-((1R,2R)-3-(3,3-difluoropyrrolidin-1-yl)-1-(2,3-dihydrobenzo[b][1,4]dioxin-6-yl)-1-hydroxypropan-2-yl)-2,2-difluoroacetamide] | B* (the compound had a % inhibition of greater than or equal to about 3% but less than about 50%)

Same assay, conditions: Table 2; data marked by *

Compound | % inhibition generated from Assay 1
O=C(N[C@H](CN1CCCC1)[C@H](O)c1ccc(OC2CC2)c(Cl)c1)C(F)(F)c1cnc(-c2ccc(F)cc2)s1 [Compound 222, N-((1R,2R)-1-(3-chloro-4-cyclopropoxyphenyl)-1-hydroxy-3-(pyrrolidin-1-yl)propan-2-yl)-2,2-difluoro-2-(2-(4-fluorophenyl)thiazol-5-yl)acetamide] | B* (the compound had a % inhibition of greater than or equal to about 3% but less than about 50%)
O=C(CCc1ccc2ccccc2c1)C(=O)N[C@H](CN1CCC1)[C@H](O)c1cc(F)c2c(c1)OCCO2 [Compound 145, N-((1R,2R)-3-(azetidin-1-yl)-1-(8-fluoro-2,3-dihydrobenzo[b][1,4]dioxin-6-yl)-1-hydroxypropan-2-yl)-4-(naphthalen-2-yl)-2-oxobutanamide] | A* (the compound had a % inhibition of a percent inhibition of greater than or equal to about 50%)
O=C(N[C@H](CN1CCCC1)[C@H](O)c1ccc(OC2CC2)c(Cl)c1)C(=O)N1CCN(c2ccc(F)cc2)CC1 [Example 262, N-((1R,2R)-1-(3-chloro-4-cyclopropoxyphenyl)-1-hydroxy-3-(pyrrolidin-1-yl)propan-2-yl)-2-(4-(4-fluorophenyl)piperazin-1-yl)-2-oxoacetamide] | B* (the compound had a % inhibition of greater than or equal to about 3% but less than about 50%)
O=C(N[C@H](CN1CCCC1)[C@H](O)c1ccc(OC2CC2)nc1)C(F)(F)CCc1ccc2ccccc2c1 [Compound 120, N-((1R,2R)-1-(6-cyclopropoxypyridin-3-yl)-1-hydroxy-3-(pyrrolidin-1-yl)propan-2-yl)-2,2-difluoro-4-(naphthalen-2-yl)butanamide] | A* (the compound had a % inhibition of a percent inhibition of greater than or equal to about 50%)
CC(C)Oc1cc([C@@H](O)[C@@H](CN2CCCC2)NC(=O)C(F)(F)CCc2ccc3cc(F)ccc3c2)ccn1 [Compound 114, 2,2-difluoro-4-(6-fluoronaphthalen-2-yl)-N-((1R,2R)-1-hydroxy-1-(2-isopropoxypyridin-4-yl)-3-(pyrrolidin-1-yl)propan-2-yl)butanamide] | A* (the compound had a % inhibition of a percent inhibition of greater than or equal to about 50%)
O=C(N[C@H](CN1CCCC1)[C@H](O)c1ccc2c(c1)OCCO2)C(=O)c1ccc(-c2ccccn2)cc1 [Compound 195, N-((1R,2R)-1-(2,3-dihydrobenzo[b][1,4]dioxin-6-yl)-1-hydroxy-3-(pyrrolidin-1-yl)propan-2-yl)-2-oxo-2-(4-(pyridin-2-yl)phenyl)acetamide] | A* (the compound had a % inhibition of a percent inhibition of greater than or equal to about 50%)

Same assay, conditions: Table 2; data without asterisk; read-out: IC50 (nM) generated from Assay 1

Compound | IC50 [nM]
O=C(N[C@H](CN1CCCC1)[C@H](O)c1ccc(OC2CC2)c(Cl)c1)C(=O)C1CCN(c2ccc(F)cc2)CC1 [Compound 380, N-((1R,2R)-1-(3-chloro-4-cyclopropoxyphenyl)-1-hydroxy-3-(pyrrolidin-1-yl)propan-2-yl)-2-(1-(4-fluorophenyl)piperidin-4-yl)-2-oxoacetamide] | 50 to 5000
O=C(N[C@H](CN1CCCC1)[C@H](O)c1ccc(OC2CC2)c(Cl)c1)C(=O)c1ccc(-c2ccc3scnc3c2)cc1 [Example 296, 2-(4-(benzo[d]thiazol-5-yl)phenyl)-N-((1R,2R)-1-(3-chloro-4-cyclopropoxyphenyl)-1-hydroxy-3-(pyrrolidin-1-yl)propan-2-yl)-2-oxoacetamide] | < 50
CC(C)c1ccc(-c2ccc(C(=O)C(=O)N[C@H](CN3CCCC3)[C@H](O)c3cc(F)c4c(c3)OCCO4)cc2)cc1 [Example 357, N-((1R,2R)-1-(8-fluoro-2,3-dihydrobenzo[b][1,4]dioxin-6-yl)-1-hydroxy-3-(pyrrolidin-1-yl)propan-2-yl)-2-(4′-isopropyl-[1,1′-biphenyl]-4-yl)-2-oxoacetamide] | < 50
O=C(N[C@H](CN1CCCC1)[C@H](O)c1ccc(OC2CC2)c(Cl)c1)C(F)(F)c1ccc(-c2ccccn2)cc1 [Compound 182, N-((1R,2R)-1-(3-chloro-4-cyclopropoxyphenyl)-1-hydroxy-3-(pyrrolidin-1-yl)propan-2-yl)-2,2-difluoro-2-(4-(pyridin-2-yl)phenyl)acetamide] | < 50
O=C(N[C@H](CN1CCCC1)[C@H](O)c1ccc(OC2CC2)c(Cl)c1)C(=O)c1ccc(F)cc1 [Compound 376, N-((1R,2R)-1-(3-chloro-4-cyclopropoxyphenyl)-1-hydroxy-3-(pyrrolidin-1-yl)propan-2-yl)-2-(4-fluorophenyl)-2-oxoacetamide] | < 50
O=C(N[C@H](CN1CCCC1)[C@H](O)c1ccc(OC2CC2)c(Cl)c1)C(=O)c1ccc(-c2ccc(Cl)cc2)cc1 [Example 270, N-((1R,2R)-1-(3-chloro-4-cyclopropoxyphenyl)-1-hydroxy-3-(pyrrolidin-1-yl)propan-2-yl)-2-(4′-chloro-[1,1′-biphenyl]-4-yl)-2-oxoacetamide] | < 50
COc1cc([C@@H](O)[C@@H](CN2CCCC2)NC(=O)C(=O)c2ccc(-c3ccc(F)cc3)cc2)cc(F)c1OC(C)C [Example 344, N-((1R,2R)-1-(3-fluoro-4-isopropoxy-5-methoxyphenyl)-1-hydroxy-3-(pyrrolidin-1-yl)propan-2-yl)-2-(4′-fluoro-[1,1′-biphenyl]-4-yl)-2-oxoacetamide] | < 50
O=C(N[C@H](CN1CCCC1)[C@H](O)c1ccc2c(c1)OCCO2)C(F)(F)CCc1ccc2c(c1)CCCC2 [Compound 165, N-((1R,2R)-1-(2,3-dihydrobenzo[b][1,4]dioxin-6-yl)-1-hydroxy-3-(pyrrolidin-1-yl)propan-2-yl)-2,2-difluoro-4-(5,6,7,8-tetrahydronaphthalen-2-yl)butanamide] | < 50
O=C(N[C@H](CN1CCCC1)[C@H](O)c1ccc(OC2CC2)c(Cl)c1)C(=O)c1ccc(-c2ccc(F)cn2)cc1 [Compound 175] | < 50

Same assay, conditions: Table 3; MDCK cell lysate; read-out: IC50 (nM) generated from Assay 1

Compound | IC50 [nM]
O=C(N[C@H](CN1CCCC1)[C@H](O)c1ccc(OC2CC2)c(F)c1)C(F)(F)c1ccc(-c2ccc(Cl)s2)cc1 [Example 397, 2-(4-(5-chlorothiophen-2-yl)phenyl)-N-((1R,2R)-1-(4-cyclopropoxy-3-fluorophenyl)-1-hydroxy-3-(pyrrolidin-1-yl)propan-2-yl)-2,2-difluoroacetamide] | < 50

— patent publication US10227323B2, “Glucosylceramide synthase inhibitors for the treatment of diseases” (BIOMARIN PHARMACEUTICAL INC., priority 2013, dated 2019)
